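Cultured in 96-well plates, cells were exposed to test compound for 48 hours across five concentrations. TGI marks complete inhibition of growth.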
Assays:
Test in all cases: NCI tumour cell line growth inhibition, 48 h
[1] = test system: SN12C renal
[2] = test system: MDA-N
[3] = test system: HL-60(TB) leukemia
[4] = test system: UO-31 renal
[5] = test system: RXF-631 renal
[6] = test system: CAKI-1 renal
[7] = test system: OVCAR-5 ovarian
[8] = test system: NCI-H522 lung
[9] = test system: HCT-116 colon
[10] = test system: M14 melanoma
[11] = test system: MOLT-4 leukemia
[12] = test system: OVCAR-8 ovarian
[13] = test system: T-47D breast
[14] = test system: XF 498 CNS
[15] = test system: COLO 205 colon
[16] = test system: OVCAR-3 ovarian
[17] = test system: DU-145 prostate
[18] = test system: MALME-3M melanoma
[19] = test system: RPMI-8226 leukemia
[20] = test system: DMS 114 small cell lung
[21] = test system: SK-OV-3 ovarian
[22] = test system: OVCAR-4 ovarian
[23] = test system: MDA-MB-435
[24] = test system: 786-0 renal
[25] = test system: SNB-75 CNS
[26] = test system: HT29 colon
[27] = test system: MCF7 breast
[28] = test system: ACHN renal
[29] = test system: UACC-257 melanoma
[30] = test system: SK-MEL-5 melanoma
[31] = test system: P388 leukemia
[32] = test system: HOP-92 NSCLC
[33] = test system: SK-MEL-28 melanoma
[34] = test system: HCT-15 colon
[35] = test system: P388/ADR leukemia
[36] = test system: EKVX NSCLC
[37] = test system: A549 NSCLC
[38] = test system: NCI-H23 lung
[39] = test system: NCI-H460 lung
[40] = test system: SR leukemia
[41] = test system: NCI/ADR-RES ovarian
[42] = test system: SNB-78 CNS
[43] = test system: CCRF-CEM leukemia
[44] = test system: PC-3 prostate
[45] = test system: SF-295 CNS
[46] = test system: DMS 273 small cell lung
[47] = test system: A498 renal
[48] = test system: NCI-H226 lung
[49] = test system: IGROV1 ovarian
[50] = test system: SK-MEL-2 melanoma
[51] = test system: SW-620 colon
[52] = test system: KM12 colon
[53] = test system: RXF 393 renal
[54] = test system: DLD-1 colon
[55] = test system: HOP-18 NSCLC
[56] = test system: KM20L2 colon
[57] = test system: HS 578T breast
[58] = test system: U251 CNS
[59] = test system: UACC-62 melanoma
[60] = test system: BT-549 breast
[61] = test system: TK-10 renal
[62] = test system: LOX IMVI melanoma
[63] = test system: K-562 leukemia
[64] = test system: HOP-62 NSCLC
[65] = test system: M19-MEL melanoma
[66] = test system: MDA-MB-231 breast
[67] = test system: LXFL 529 NSCLC
[68] = test system: SN12K1 renal
[69] = test system: SF-268 CNS
[70] = test system: SF-539 CNS
[71] = test system: HCC-2998 colon
[72] = test system: SNB-19 CNS

O=c1cnn(C2OC(CO)C(O)C2O)c(=S)[nH]1 (configuration not stated)
TGI [1]: > 100 µM | TGI [2]: > 100 µM | TGI [3]: > 100 µM | TGI [4]: > 100 µM | TGI [5]: > 100 µM | TGI [6]: > 100 µM | TGI [7]: > 100 µM | TGI [8]: > 55.4 µM | TGI [9]: > 100 µM | TGI [10]: > 100 µM | TGI [11]: > 30.7 µM | TGI [12]: > 100 µM | TGI [13]: > 100 µM | TGI [14]: > 100 µM | TGI [15]: > 100 µM | TGI [16]: > 100 µM | TGI [17]: > 100 µM | TGI [18]: > 100 µM | TGI [19]: > 29.8 µM | TGI [20]: > 100 µM | TGI [21]: > 100 µM | TGI [22]: > 100 µM | TGI [23]: > 100 µM | TGI [24]: > 100 µM | TGI [25]: > 100 µM | TGI [26]: > 100 µM | TGI [27]: > 100 µM | TGI [28]: > 100 µM | TGI [29]: > 100 µM | TGI [30]: > 100 µM | TGI [31]: 11.2 µM | TGI [32]: > 100 µM | TGI [33]: > 100 µM | TGI [34]: > 100 µM | TGI [35]: 6.27 µM | TGI [36]: > 100 µM | TGI [37]: > 100 µM | TGI [38]: > 100 µM | TGI [39]: > 41.7 µM | TGI [40]: 19.2 µM | TGI [41]: > 100 µM | TGI [42]: > 100 µM | TGI [43]: > 100 µM | TGI [44]: > 100 µM | TGI [45]: > 100 µM | TGI [46]: > 100 µM | TGI [47]: > 100 µM | TGI [48]: > 100 µM | TGI [49]: > 100 µM | TGI [50]: > 100 µM | TGI [51]: > 74.6 µM | TGI [52]: > 100 µM | TGI [53]: > 100 µM | TGI [54]: > 100 µM | TGI [55]: > 100 µM | TGI [56]: > 100 µM | TGI [57]: > 100 µM | TGI [58]: > 100 µM | TGI [59]: > 100 µM | TGI [60]: > 100 µM | TGI [61]: > 100 µM | TGI [62]: > 68.5 µM | TGI [63]: > 44.6 µM | TGI [64]: > 100 µM | TGI [65]: > 100 µM | TGI [66]: > 100 µM | TGI [67]: > 100 µM | TGI [68]: > 100 µM | TGI [69]: > 100 µM | TGI [70]: > 100 µM | TGI [71]: > 100 µM | TGI [72]: > 100 µM

Source: PubChem BioAssay (NCI)
